Reference: US20250115569A1, “SULFONAMIDE COMPOUNDS FOR THE TREATMENT OF NEUROLOGICAL CONDITIONS” (LARIO THERAPEUTICS LIMITED, priority 2021, published 2025)

Test system: Human Cav2.3 channel
Assay: Human Cav2.3 channel calcium-influx assay
Type: cell-based
Settings: Fluo8 fluorescence, HEK-293 T-Rex/Kir2.1/Cav2.3e cells, without pluronic acid
Method: HEK-293 T-Rex cells were transfected with pcDNA3.1-Kir2.1 to generate a stable cell line. After antibiotic selection, the obtained stable pools were analysed using FLIPR^TETRA (membrane potential assay), and a limiting dilution was performed and a HEK-293 T-Rex/Kir2.1 clone was selected. The clone was transfected with pcDNA3.1-Cav2.3e and pBud-Cav-β4-α2δ1 to generate a stable cell line where the Cav2.3e expression is inducible. After antibiotic selection, functional clone pool analysis and two successive limiting dilutions, the final clone underwent a qPCR analysis and a biophysical and pharmacological validation using patch-clamp.
A compound plate, containing 10 test compounds in eight-points dose response with n=4, was prepared. Test compounds dose response curves were prepared in automated fashion in 100% DMSO at CyBio Felix and starting from a stock solution in 100% DMSO; a defined volume was serially moved into destination wells pre-filled with the desired DMSO volume; stock solution concentration volumes were dependent on the final compounds concentrations to be tested and the final DMSO content used in the assay. For the assay test compounds dose response curves ranged from 30 μM and half log dilution with 0.3% final DMSO. In order to obtain the 8-points dose response curve all the concentrations were created by starting from a 10 mM DMSO stock solution and then moving 9.5 μL into a destination well pre-filled with 20.5 μL of 100% DMSO and repeating this step seven times. This initial step was done into 96 MTP plates, 10 compounds/plate. One 384 MTP was then reformatted to contain all the 10 compounds at 8 concentrations, quadruplicate data points. This so obtained 384 MTP compound plate served as source plate in a “mother to child” process with a CyBi®-Well dispenser in which 0.7 μL of compounds were moved into a destination plate pre-filled with 57.6 μL of Tyrode's buffer 0 mM K+, thus obtaining 4× concentrated compounds solution. In columns 1-2 and 23-24 the control wells were added. Both “source” compound plate and “destination” compound plate were barcoded and a relationship between the two plates was thus generated.
The day before the experiment, cells were detached by gentle wash with DPBS, followed by 5 min incubation at 37° C. with Trypsin solution. Detached cells were diluted with OptiMEM+Doxycycline at 0.2 μg/mL, counted and plated in Poly-D-Lysine coated black/clear bottom (15.000 c/well in 20 μl/well) by the use of a MATRIX WellMate dispenser. Plates were placed into a humidified incubator at 37° C. with 5% CO2 until the experimental day. 24 h after seeding 10 μL/well of 1.5× Fluo8 NW dye solution prepared in Tyrode's buffer 0 mM K* were added on top of the seeding medium. Cell plates were incubated for 40-60 min at RT in the dark. We then Injected off-line 10 μL/well of test compounds and controls 4× concentrated in Tyrode's Buffer 0 mM K+ with the CyBi®-Well instrument. Cell plates were incubated 3 minutes at RT. Finally, we injected 20 μL/well of 3× concentrated activator solution (K20-Na130-Ca2 buffer: 20 mM KCl, 130 mM NaCl, 2 mM CaCl2, 10 mM HEPES, 10 mM Glucose, final concentrations, prepared starting from “K0-Na150-Ca2” and “K150-Na0-Ca2” buffers) at FDSS7000EX instrument and read emitted fluorescence for 130 seconds.
Data analysis was performed with Genedata Screener® software and reported compounds activity as % effect in relation to the normalization standards. The Kinetic Response Value (KRV) is calculated as follows:
KRV=Maximal fluorescence recorded from second 5 to second 130 minus baseline fluorescence, computed as average from second 1 to second 2, of the kinetic trace. The KRV was normalized versus Neutral Controls and Inhibitor Controls in order to obtain the Activity[%] for each well. […] Therefore, the compound activity values were scaled (based on the two references) to a common range (two-point normalization). […]

Structure (SMILES)	Cav2.3 (pIC50)
CCN([C@H](c1ccccc1C(F)(F)F)C(F)(F)F)S(=O)(=O)c1cncc(C#N)c1 [Example 248, (R)-5-cyano-N-ethyl-N-(2,2,2-trifluoro-1-(2-(trifluoromethyl)phenyl)ethyl)pyridine-3-sulfonamide]	5.14
CCN([C@H](c1ccc(F)cc1)C(F)(F)F)S(=O)(=O)c1ccc(F)s1 [Example 16, (R)—N-ethyl-5-fluoro-N-(2,2,2-trifluoro-1-(4-fluorophenyl)ethyl)thiophene-2-sulfonamide]	5.78
CCN(C(c1ccc(F)cc1)C(F)(F)F)S(=O)(=O)c1sc(C#N)cc1C (stereo not shown) [Example 45, 5-Cyano-N-ethyl-3-methyl-N-(2,2,2-trifluoro-1-(4-fluorophenyl)ethyl)thiophene-2-sulfonamide]	6.07
CCN([C@H](c1ccc(F)cc1)C(F)(F)F)S(=O)(=O)c1csc(C#N)c1 (stereo in doubt) [Example 43, 5-Cyano-N-ethyl-N-(2,2,2-trifluoro-1-(4-fluorophenyl)ethyl)thiophene-3-sulfonamide]	6.69
CCN(C(c1ncc(C)s1)C(F)(F)F)S(=O)(=O)c1cncc(C#N)c1 (stereo not shown) [Example 264, 5-Cyano-N-ethyl-N-(2,2,2-trifluoro-1-(5-methylthiazol-2-yl)ethyl)pyridine-3-sulfonamide]	4.96
CCN([C@H](c1ccc(F)cc1)C(F)(F)F)S(=O)(=O)c1ccc2c(c1)OCC2 [Example 40, (R)—N-ethyl-N-(2,2,2-trifluoro-1-(4-fluorophenyl)ethyl)-2,3-dihydrobenzofuran-6-sulfonamide]	5.62
CCN([C@H](c1ccc(C(F)(F)F)cc1)C(F)(F)F)S(=O)(=O)c1ccn2ncnc2c1 [Example 216, (R)—N-ethyl-N-(2,2,2-trifluoro-1-(4-(trifluoromethyl)phenyl)ethyl)-[1,2,4]triazolo[1,5-a]pyridine-7-sulfonamide]	7.29
CCN(C(c1ccc(F)cc1F)C(F)(F)F)S(=O)(=O)c1cncc(C#N)c1 (stereo not shown) [Example 244, 5-cyano-N-(1-(2,4-difluorophenyl)-2,2,2-trifluoroethyl)-N-ethylpyridine-3-sulfonamide]	5.84
CCN([C@@H](c1ccc(F)cc1)C(F)(F)F)S(=O)(=O)c1ccc(N2CCOCC2)s1 [Example 91, (S)—N-ethyl-5-morpholino-N-(2,2,2-trifluoro-1-(4-fluorophenyl)ethyl)thiophene-2-sulfonamide]	5.37
CCN(C(c1ccc(F)cc1)C(F)(F)F)S(=O)(=O)c1ccc(C)s1 (stereo not shown) [Example 8, N-ethyl-5-methyl-N-(2,2,2-trifluoro-1-(4-fluorophenyl)ethyl)thiophene-2-sulfonamide]	5.53
CCN(C(c1ccc(F)cc1)C(F)(F)F)S(=O)(=O)C1CCOCC1 (stereo not shown) [Example 61, N-ethyl-N-(2,2,2-trifluoro-1-(4-fluorophenyl)ethyl)tetrahydro-2H-pyran-4-sulfonamide]	7.01
CCN([C@H](c1ccc(F)cc1)C(F)(F)F)S(=O)(=O)c1ccc2c(c1)OC(F)(F)O2 [Example 162, (R)—N-ethyl-2,2-difluoro-N-(2,2,2-trifluoro-1-(4-fluorophenyl)ethyl)benzo[d][1,3]dioxole-5-sulfonamide]	6.01
CCN(C(c1ccc(F)cc1)C(F)(F)F)S(=O)(=O)c1ccc2c(c1)OCC2 (stereo not shown) [Example 39, N-ethyl-N-(2,2,2-trifluoro-1-(4-fluorophenyl)ethyl)-2,3-dihydrobenzofuran-6-sulfonamide]	5.82
CCN([C@H](c1ccc(F)cc1)C(F)(F)F)S(=O)(=O)c1ccc(C)s1 [Example 10, (R)—N-ethyl-5-methyl-N-(2,2,2-trifluoro-1-(4-fluorophenyl)ethyl)thiophene-2-sulfonamide]	5.66
CCN([C@@H](c1ccc(F)c(OC)c1)C(F)(F)F)S(=O)(=O)c1cncc(C#N)c1 [Example 258, (S)-5-cyano-N-ethyl-N-(2,2,2-trifluoro-1-(4-fluoro-3-methoxyphenyl)ethyl)pyridine-3-sulfonamide]	5.87
CN([C@H](c1ccc(F)cc1)C(F)(F)F)S(=O)(=O)C1CCOCC1 [Example 132, (R)—N-methyl-N-(2,2,2-trifluoro-1-(4-fluorophenyl)ethyl)tetrahydro-2H-pyran-4-sulfonamide]	6.05

More lines, now with the values ahead:

Cav2.3 (pIC50)	Structure (SMILES)
5.91	CN([C@H](c1ccc(C(F)(F)F)cc1)C(F)(F)F)S(=O)(=O)c1ccc2ncc(Cl)n2c1 [Example 233, (R)-3-chloro-N-methyl-N-(2,2,2-trifluoro-1-(4-(trifluoromethyl)phenyl)ethyl)imidazo[1,2-a]pyridine-6-sulfonamide]
7.18	CCN([C@H](c1cccc(Cl)c1)C(F)(F)F)S(=O)(=O)c1cncc(C#N)c1 [Example 251, (R)—N-(1-(3-chlorophenyl)-2,2,2-trifluoroethyl)-5-cyano-N-ethylpyridine-3-sulfonamide]
6.07	CN([C@@H](CF)c1ccc(Cl)cc1)S(=O)(=O)c1cncc(C#N)c1 [Example 213, (R)—N-(1-(4-chlorophenyl)-2-fluoroethyl)-5-cyano-N-methylpyridine-3-sulfonamide]
5.38	CCN([C@@H](c1ccc(C)cc1)C(F)(F)F)S(=O)(=O)c1cncc(C#N)c1 [Example 105, (S)-5-Cyano-N-ethyl-N-(2,2,2-trifluoro-1-(p-tolyl)ethyl)pyridine-3-sulfonamide]
6.76	CCN(C(c1ccc(F)cc1)C(F)(F)F)S(=O)(=O)c1ccn2ccnc2c1 (stereo not shown) [Example 135, N-ethyl-N-(2,2,2-trifluoro-1-(4-fluorophenyl)ethyl)imidazo[1,2-a]pyridine-7-sulfonamide]
6.43	CCN(C(c1ccc(F)cc1)C(F)(F)F)S(=O)(=O)c1cc(C)c(Cl)s1 (stereo not shown) [Example 31, 5-chloro-N-ethyl-4-methyl-N-(2,2,2-trifluoro-1-(4-fluorophenyl)ethyl)thiophene-2-sulfonamide]
6.70	CCN([C@H](c1ccc(F)cc1)C(F)(F)F)S(=O)(=O)c1ccc2nc(N)sc2c1 [Example 154, (R)-2-amino-N-ethyl-N-(2,2,2-trifluoro-1-(4-fluorophenyl)ethyl)benzo[d]thiazole-6-sulfonamide]
6.96	CN(C(c1ccc(C(F)(F)F)c(F)c1)C(F)(F)F)S(=O)(=O)c1cncc(C#N)c1 (stereo not shown) [Example 255, 5-cyano-N-methyl-N-(2,2,2-trifluoro-1-(3-fluoro-4-(trifluoromethyl)phenyl)ethyl)pyridine-3-sulfonamide]
7.33	CCN([C@H](c1ccc(F)c(Cl)c1)C(F)(F)F)S(=O)(=O)c1cncc(C#N)c1 [Example 254, (R)—N-(1-(3-chloro-4-fluorophenyl)-2,2,2-trifluoroethyl)-5-cyano-N-ethylpyridine-3-sulfonamide]
6.65	CN([C@H](c1ccc(Cl)cc1)C(F)(F)F)S(=O)(=O)c1cnc2[nH]cnc2c1 [Example 193, (R)—N-(1-(4-chlorophenyl)-2,2,2-trifluoroethyl)-N-methyl-3H-imidazo[4,5-b]pyridine-6-sulfonamide]
6.22	CN([C@H](c1ccc(F)cc1)C(F)(F)F)S(=O)(=O)c1ccc(C#N)s1 [Example 6, (R)-5-cyano-N-methyl-N-(2,2,2-trifluoro-1-(4-fluorophenyl)ethyl)thiophene-2-sulfonamide]
6.20	CCN([C@@H](c1ccc(F)cc1)C(F)(F)F)S(=O)(=O)c1cncc(C#N)c1 [Example 34, (S)-5-cyano-N-ethyl-N-(2,2,2-trifluoro-1-(4-fluorophenyl)ethyl)pyridine-3-sulfonamide]
